Calls of active or inactive are those of the source. Unless noted, the calls are words filed in the database; no cut-off is given here.
Experiments:
[1] = A cell-based HTS for delayed death inhibitors of the malarial parasite plastid Measured in Microorganism System Using Plate Reader - 2126-02_Inhibitor_Dose_DryPowder_Activity.; format: functional, organism-based
[2] = A cell-based HTS for delayed death inhibitors of the malarial parasite plastid Measured in Microorganism System Using Plate Reader - 2126-01_Inhibitor_Dose_DryPowder_Activity.; format: functional, organism-based
[3] = FACS-based assay to assess parasite growth inhibition 48 hr Measured in Cell-Based System Using Flow Cytometry - 2126-03_Inhibitor_Dose_DryPowder_Activity. [Related pubchem assays (depositor defined):AID488774]; format: functional; conditions: Homo sapiens
Erythrocyte = test: FACS-based assay to assess parasite growth inhibition 96 hr Measured in Cell-Based System Using Flow Cytometry - 2126-05_Inhibitor_Dose_DryPowder_Activity. [Related pubchem assays (depositor defined):AID488774]; format: functional; conditions: Homo sapiens
[4] = biological target: Cyclin-dependent kinase 19 (Homo sapiens, UniProt Q9BWU1); test: Navigating the Kinome. Panel member name: CDC2L6; format: functional
Sequence of Cyclin-dependent kinase 19 (Q9BWU1 whole entry): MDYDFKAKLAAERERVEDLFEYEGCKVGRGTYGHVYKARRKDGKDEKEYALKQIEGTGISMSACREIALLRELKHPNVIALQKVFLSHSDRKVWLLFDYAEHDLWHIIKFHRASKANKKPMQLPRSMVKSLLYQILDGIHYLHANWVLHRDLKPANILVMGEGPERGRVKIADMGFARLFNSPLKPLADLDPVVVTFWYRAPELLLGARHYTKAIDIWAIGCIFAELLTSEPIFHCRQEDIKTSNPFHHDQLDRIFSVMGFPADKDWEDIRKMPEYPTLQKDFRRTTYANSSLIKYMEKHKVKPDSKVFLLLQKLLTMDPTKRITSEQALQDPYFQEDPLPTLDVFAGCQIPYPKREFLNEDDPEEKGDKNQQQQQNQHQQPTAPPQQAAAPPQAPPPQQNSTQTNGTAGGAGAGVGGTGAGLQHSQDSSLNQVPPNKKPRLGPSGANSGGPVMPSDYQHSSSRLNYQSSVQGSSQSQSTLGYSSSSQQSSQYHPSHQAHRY

[5] = biological target: ALK tyrosine kinase receptor (Homo sapiens, UniProt Q9UM73); format: functional;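 further: ALK tested as one member of a kinase panel screen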
Sequence of ALK tyrosine kinase receptor (Q9UM73 whole entry): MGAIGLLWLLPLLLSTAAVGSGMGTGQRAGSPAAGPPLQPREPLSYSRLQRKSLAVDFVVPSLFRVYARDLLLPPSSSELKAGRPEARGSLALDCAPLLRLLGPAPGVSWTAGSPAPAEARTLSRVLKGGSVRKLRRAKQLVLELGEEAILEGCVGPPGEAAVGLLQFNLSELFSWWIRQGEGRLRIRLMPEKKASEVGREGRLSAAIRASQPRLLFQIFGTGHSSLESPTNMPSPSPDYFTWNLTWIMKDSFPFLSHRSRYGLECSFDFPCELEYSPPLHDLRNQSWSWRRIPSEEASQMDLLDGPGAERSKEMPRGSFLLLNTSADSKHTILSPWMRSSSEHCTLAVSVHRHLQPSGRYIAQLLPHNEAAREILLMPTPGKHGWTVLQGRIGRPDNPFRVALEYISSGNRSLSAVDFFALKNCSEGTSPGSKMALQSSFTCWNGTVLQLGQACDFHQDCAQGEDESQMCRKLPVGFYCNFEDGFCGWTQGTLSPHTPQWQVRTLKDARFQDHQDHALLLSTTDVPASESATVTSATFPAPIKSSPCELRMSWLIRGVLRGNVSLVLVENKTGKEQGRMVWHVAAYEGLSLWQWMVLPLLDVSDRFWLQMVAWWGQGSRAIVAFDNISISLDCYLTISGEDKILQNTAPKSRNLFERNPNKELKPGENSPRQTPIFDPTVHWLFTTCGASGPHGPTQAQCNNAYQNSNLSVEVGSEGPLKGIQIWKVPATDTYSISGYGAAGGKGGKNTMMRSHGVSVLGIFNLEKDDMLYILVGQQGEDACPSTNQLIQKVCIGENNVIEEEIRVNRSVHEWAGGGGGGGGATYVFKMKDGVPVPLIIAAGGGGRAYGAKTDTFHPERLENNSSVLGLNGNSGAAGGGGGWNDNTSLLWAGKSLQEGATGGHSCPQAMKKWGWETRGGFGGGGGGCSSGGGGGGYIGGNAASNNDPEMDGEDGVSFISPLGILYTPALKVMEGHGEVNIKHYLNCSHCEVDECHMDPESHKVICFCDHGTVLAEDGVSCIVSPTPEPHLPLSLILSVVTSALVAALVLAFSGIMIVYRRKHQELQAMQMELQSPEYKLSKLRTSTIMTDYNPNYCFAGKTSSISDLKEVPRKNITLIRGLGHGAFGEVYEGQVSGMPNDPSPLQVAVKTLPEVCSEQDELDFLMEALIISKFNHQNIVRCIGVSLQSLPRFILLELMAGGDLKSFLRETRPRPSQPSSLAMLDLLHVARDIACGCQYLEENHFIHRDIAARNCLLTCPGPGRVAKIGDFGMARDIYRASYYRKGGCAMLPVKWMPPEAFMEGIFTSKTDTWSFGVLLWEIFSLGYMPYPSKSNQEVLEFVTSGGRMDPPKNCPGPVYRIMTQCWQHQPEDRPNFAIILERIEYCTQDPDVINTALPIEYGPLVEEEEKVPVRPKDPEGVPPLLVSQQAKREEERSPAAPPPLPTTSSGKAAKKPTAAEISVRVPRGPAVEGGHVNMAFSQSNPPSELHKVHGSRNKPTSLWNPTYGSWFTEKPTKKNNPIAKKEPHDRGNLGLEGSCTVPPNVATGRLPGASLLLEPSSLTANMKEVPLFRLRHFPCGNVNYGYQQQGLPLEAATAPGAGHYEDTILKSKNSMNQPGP

[6] = blockers of CRF-binding protein–CRF-R2 complex – cell-based, uHTS hits, 384-well, dose response (AID 651639); format: functional, Homo sapiens; conditions: read-out: IC50_Mean
CAAX prenyl protease 2 [7] = biological target: T1, CAAX prenyl protease 2 (Saccharomyces cerevisiae S288c, UniProt Q03530); test: inhibition of Rce1p peptide cleavage – biochemical, plate reader, dry powder retest, dose response (AID 588851)
T1 sequence (Q03530 whole entry): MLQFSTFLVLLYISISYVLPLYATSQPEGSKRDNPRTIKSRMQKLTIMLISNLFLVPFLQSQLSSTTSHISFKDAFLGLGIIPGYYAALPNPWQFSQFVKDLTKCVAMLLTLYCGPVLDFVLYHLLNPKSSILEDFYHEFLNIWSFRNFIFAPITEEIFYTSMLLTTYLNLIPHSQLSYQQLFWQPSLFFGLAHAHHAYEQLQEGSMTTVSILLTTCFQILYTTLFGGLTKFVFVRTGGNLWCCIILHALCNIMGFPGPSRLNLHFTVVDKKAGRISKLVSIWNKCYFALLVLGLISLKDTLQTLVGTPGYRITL

CAAX prenyl protease 2 [8] = biological target: T1, CAAX prenyl protease 2; format: biochemical
[9] = biological target: T2, Corticotropin-releasing factor receptor 2/Corticotropin-releasing factor-binding protein (Homo sapiens, UniProt P24387+Q13324); test: activators of CRF receptor 2 with binding protein – uHTS hits, confirmation (AID 602473); format: functional; conditions: read-out: EC50_Mean
T2 sequence (Q13324 whole entry): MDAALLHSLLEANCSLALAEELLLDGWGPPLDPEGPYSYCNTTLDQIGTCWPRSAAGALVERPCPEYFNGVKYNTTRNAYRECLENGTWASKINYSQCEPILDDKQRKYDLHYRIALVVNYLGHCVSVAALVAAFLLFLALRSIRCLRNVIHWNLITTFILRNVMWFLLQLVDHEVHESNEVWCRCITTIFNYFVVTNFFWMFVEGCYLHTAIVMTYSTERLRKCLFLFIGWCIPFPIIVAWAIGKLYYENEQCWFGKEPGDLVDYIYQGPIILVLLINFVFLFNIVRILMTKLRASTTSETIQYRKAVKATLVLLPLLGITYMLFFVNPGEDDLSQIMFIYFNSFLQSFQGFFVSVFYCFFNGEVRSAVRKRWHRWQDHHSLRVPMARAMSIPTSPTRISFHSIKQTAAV
T2 sequence (P24387 whole entry): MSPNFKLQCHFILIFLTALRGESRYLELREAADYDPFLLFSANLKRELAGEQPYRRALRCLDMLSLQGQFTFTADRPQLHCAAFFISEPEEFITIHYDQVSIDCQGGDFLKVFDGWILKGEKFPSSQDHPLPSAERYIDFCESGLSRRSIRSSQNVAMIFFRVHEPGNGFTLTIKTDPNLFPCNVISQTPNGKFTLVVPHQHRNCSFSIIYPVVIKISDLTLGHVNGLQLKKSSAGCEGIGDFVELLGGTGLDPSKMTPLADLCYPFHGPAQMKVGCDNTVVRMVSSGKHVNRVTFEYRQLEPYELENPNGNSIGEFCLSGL

[10] = biological target: T2, Corticotropin-releasing factor receptor 2/Corticotropin-releasing factor-binding protein; test: Dose Response confirmation of uHTS hits for small molecule antagonists of the CRF-binding protein and CRF-R2 receptor complex.; format: functional; conditions: read-out: IC50_Mean
[11] = viability loss in Vero cells – cell-based, purified and synthesized samples, set 8, cytotoxicity control for M. tuberculosis inhibitor project (AID 602431); format: functional; conditions: Mycobacterium tuberculosis
[12] = HepG2 cell cytotoxicity, cytotoxicity control, set 6 (AID 602432); format: functional; conditions: Mycobacterium tuberculosis
[13] = THP-1 cell cytotoxicity, cytotoxicity control, set 6 (AID 602433); format: functional; conditions: Mycobacterium tuberculosis
HEK293 [14] = test: membrane integrity loss in HEK cells – cell-based, fluorescence, cytotoxicity control for IDE activator project, dose response (AID 588440); format: functional; conditions: Homo sapiens;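 further: cytotoxicity by LDH release measuring loss of membrane integrity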
Insulin-degrading enzyme [15] = biological target: T3, Insulin-degrading enzyme (Homo sapiens, UniProt P14735); test: recombinant IDE activation, cell-free – biochemical, fluorescence polarization, counter-screen for IDE activator project, dose response (AID 588681)
T3 sequence (P14735 whole entry): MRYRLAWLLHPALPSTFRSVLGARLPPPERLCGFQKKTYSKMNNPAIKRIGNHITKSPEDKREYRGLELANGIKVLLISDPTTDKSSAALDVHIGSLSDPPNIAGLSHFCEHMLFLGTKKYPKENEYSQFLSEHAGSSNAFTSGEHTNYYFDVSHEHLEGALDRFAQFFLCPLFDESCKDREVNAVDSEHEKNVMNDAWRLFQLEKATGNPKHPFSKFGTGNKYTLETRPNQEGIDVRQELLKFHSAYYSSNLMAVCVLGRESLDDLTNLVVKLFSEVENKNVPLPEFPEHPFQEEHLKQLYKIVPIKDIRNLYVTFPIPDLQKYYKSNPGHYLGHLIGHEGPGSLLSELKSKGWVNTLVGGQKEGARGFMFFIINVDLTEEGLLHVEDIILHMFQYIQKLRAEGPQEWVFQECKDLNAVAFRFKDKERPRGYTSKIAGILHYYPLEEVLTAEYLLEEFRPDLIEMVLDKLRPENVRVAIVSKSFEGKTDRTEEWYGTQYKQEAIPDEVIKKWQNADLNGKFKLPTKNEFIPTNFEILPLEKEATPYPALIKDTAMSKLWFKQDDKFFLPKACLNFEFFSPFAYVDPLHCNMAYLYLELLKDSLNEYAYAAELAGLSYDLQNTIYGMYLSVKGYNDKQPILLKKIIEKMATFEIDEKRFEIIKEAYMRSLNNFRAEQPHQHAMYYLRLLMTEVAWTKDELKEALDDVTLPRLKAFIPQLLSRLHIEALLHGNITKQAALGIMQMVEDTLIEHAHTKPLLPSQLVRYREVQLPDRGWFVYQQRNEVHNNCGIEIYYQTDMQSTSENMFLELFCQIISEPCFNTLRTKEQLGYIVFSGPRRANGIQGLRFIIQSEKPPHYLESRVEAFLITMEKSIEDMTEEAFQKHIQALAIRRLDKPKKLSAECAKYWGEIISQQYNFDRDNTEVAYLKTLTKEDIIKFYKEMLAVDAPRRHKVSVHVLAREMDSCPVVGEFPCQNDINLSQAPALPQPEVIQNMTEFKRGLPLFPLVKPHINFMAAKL

HEK293 [16] = test: optical interference in Abeta FP readout, dose response, artefact control for IDE activator project, biochemical, fluorescence polarization (AID 588442); format: functional, cell-based; conditions: Homo sapiens
Insulin-degrading enzyme [17] = biological target: T3, Insulin-degrading enzyme; test: cellular IDE activation of Abeta substrate cleavage – fluorescence polarization, HEK cells, dose response (AID 588439); format: functional, cell-based
Candida albicans [18] = test: Candida growth effect without fluconazole – C. albicans CaCi-2, dry powder, counter-screen for antifungal drug resistance project, dose response (AID 488802); format: functional, organism-based
[19] = fluconazole-exposed Candida albicans growth modulators – fluorescence, retest, confirmation (AID 2467); format: functional, cell-based
Candida albicans [20] = test: antifungal activity against resistant Candida strain – CaCi-8, fluconazole, Alamar Blue, dry powder, dose response (AID 488807); format: functional, organism-based
[21] = NIH-3T3 fibroblast cytotoxicity, dose response, cytotoxicity control, cell-based, fluorescence, Alamar Blue, secondary assay (AID 2327); format: functional;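 further: NIH-3T3 mouse fibroblasts cultured with fluconazole at 8 µg/mL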

SMILES: COc1ccc(COC[C@H](C)N2C[C@@H](C)[C@H](CN(C)S(=O)(=O)c3ccc(F)cc3)OCCCC[C@H](C)Oc3ccc(NC(=O)Nc4ccccc4)cc3C2=O)cc1
- AC50 [1]: 0.00018 µM (active)
- AC50 [2]: 0.000294 µM (active)
- AC50 [3]: 0.0008 µM (active)
- AC50 (Erythrocyte): 0.001 µM (active)

SMILES: O=C(O)c1c(Cl)ccc2cc(-n3cccc3)cnc12
- Ki [4]: > 100 µM (inactive)
- Ki [5]: 3.98 µM (active)

SMILES: CCOc1ccc(-n2c(SCc3ccc([N+](=O)[O-])cc3)nnc2-c2ccc(OC)cc2)cc1
- IC50 [6]: > 20 µM (inactive)
- AC50 (CAAX prenyl protease 2 [7]): 1.12 µM (active)
- AC50 (CAAX prenyl protease 2 [8]): 0.102 µM (active)
- EC50 [9]: > 53 µM (inactive)
- IC50 [10]: 1.68 µM (active)

SMILES: COc1ccc(N2CCN(C(=O)c3ccc(CNc4c(N5CCCC(C)C5)c(=O)c4=O)cc3)CC2)cc1 (configuration not stated)
- CC50 [11]: > 100 µM (inconclusive)
- CC50 [12]: > 50 µM (inconclusive)
- CC50 [13]: > 98.4 µM (active)

SMILES: Cc1ccc2c(c1)c1c(n2CC(O)CNC2CCCC2)CCCC1 (configuration not stated)
- IC50 (HEK293 [14]): 61.9 µM (inactive)
- EC50 (Insulin-degrading enzyme [15]): > 54.7 µM (inactive)
- EC50 (HEK293 [16]): > 55.9 µM (inactive)
- EC50 (Insulin-degrading enzyme [17]): > 54.7 µM (inactive)

SMILES: CC1CCN(C(=O)Cn2c3ccccc3c3nc4n(c(=O)c32)CCS4)CC1
- AC50 (Candida albicans [18]): 108 µM (active)
- EC50 [19]: 0.979 µM (active)
- AC50 (Candida albicans [20]): 1.97 µM (active)
- EC50 [21]: > 160 µM (inconclusive)

From ChEMBL document CHEMBL1201862, “PubChem BioAssay data set” (2004)
